Measurements reported in ChEMBL document CHEMBL1129588, “Development of potent thrombin receptor antagonist peptides” (J Med Chem, 1996).
Starred links: 1 amine or outer side, 2 acyl side, 3 side chain; linkers in the order of their positions; H or OH if unused. Non-standard residues stand in square brackets, D forms with d. Residues, ends and D or L forms follow the SMILES beside them. *: point of attachment. X8 = C#CC(=O)c1cccc(N([C@@H](Cc2ccc(F)cc2)C(=O)[*:2])[*:1])c1; X3 = CC(=O)N(C(=O)/C=C/c1ccccc1)[C@@H](Cc1ccc(F)cc1)C(=O)*; Phe(4-guanidino) = N=C(N)Nc1ccc(C[C@H](N)C(=O)O)cc1; Phe(4-F) = N[C@@H](Cc1ccc(F)cc1)C(=O)O; X2 = O=S(=O)(c1cccs1)*

Target: T1, Proteinase-activated receptor 1 (Homo sapiens, UniProt P25116)
T1 sequence (P25116 whole entry): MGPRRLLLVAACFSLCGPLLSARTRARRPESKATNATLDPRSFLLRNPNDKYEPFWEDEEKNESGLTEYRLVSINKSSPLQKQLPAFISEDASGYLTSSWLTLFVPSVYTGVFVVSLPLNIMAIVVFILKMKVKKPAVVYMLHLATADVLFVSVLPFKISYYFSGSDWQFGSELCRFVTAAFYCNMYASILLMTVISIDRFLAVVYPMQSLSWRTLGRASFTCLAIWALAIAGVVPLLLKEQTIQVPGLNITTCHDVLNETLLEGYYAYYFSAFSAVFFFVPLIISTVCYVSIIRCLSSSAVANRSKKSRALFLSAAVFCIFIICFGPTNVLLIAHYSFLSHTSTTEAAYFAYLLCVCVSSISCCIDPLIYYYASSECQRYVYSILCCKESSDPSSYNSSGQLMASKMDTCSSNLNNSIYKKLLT

SMILES | IC50
CC(C)C[C@H](NC(=O)[C@@H](N)CCCN=C(N)N)C(=O)N[C@@H](CCCN)C(=O)N[C@@H](Cc1ccc(F)cc1)C(=O)NC(=O)/C=C/c1ccccc1 | 0.17 µM
CC(=O)N(c1cccs1)[C@@H](Cc1ccc(F)cc1)C(=O)N[C@@H](Cc1ccc(NC(=N)N)cc1)C(=O)N[C@@H](CC(C)C)C(=O)N[C@@H](CCCN=C(N)N)C(N)=O | 0.26 µM
CC(=O)N(c1ccccc1)[C@@H](Cc1ccc(F)cc1)C(=O)N[C@@H](Cc1ccc(NC(=N)N)cc1)C(=O)N[C@@H](CC(C)C)C(=O)N[C@@H](CCCN=C(N)N)C(N)=O | 0.68 µM
CC(=O)N(C(=O)c1cc2ccccc2oc1=O)[C@@H](Cc1ccc(F)cc1)C(=O)N[C@@H](Cc1ccc(NC(=N)N)cc1)C(=O)N[C@@H](CC(C)C)C(=O)N[C@@H](CCCN=C(N)N)C(N)=O | 4.33 µM
CC(=O)N(c1cccc(Cl)c1)[C@@H](Cc1ccc(F)cc1)C(=O)N[C@@H](Cc1ccc(NC(=N)N)cc1)C(=O)N[C@@H](CC(C)C)C(=O)N[C@@H](CCCN=C(N)N)C(N)=O | 0.11 µM
CC(=O)N(C(=O)Cc1cccc2ccccc12)[C@@H](Cc1ccc(F)cc1)C(=O)N[C@@H](Cc1ccc(NC(=N)N)cc1)C(=O)N[C@@H](CC(C)C)C(=O)N[C@@H](CCCN=C(N)N)C(N)=O | 1.63 µM
CC(=O)N(C(=O)/C=C/c1ccccc1)[C@@H](Cc1ccc(F)cc1)C(=O)N[C@@H](CCCN=C(N(C)C)N(C)C)C(=O)N[C@@H](CC(C)C)C(=O)N[C@@H](CCCN=C(N)N)C(N)=O | 0.32 µM
CCCC(=O)c1ccc(N(C(C)=O)[C@@H](Cc2ccc(F)cc2)C(=O)N[C@@H](Cc2ccc(NC(=N)N)cc2)C(=O)N[C@@H](CC(C)C)C(=O)N[C@@H](CCCN=C(N)N)C(N)=O)cc1 | 1.26 µM
CC(=O)N(C(=O)COc1ccccc1)[C@@H](Cc1ccc(F)cc1)C(=O)N[C@@H](Cc1ccc(NC(=N)N)cc1)C(=O)N[C@@H](CC(C)C)C(=O)N[C@@H](CCCN=C(N)N)C(N)=O | 0.021 µM
CC#Cc1ccccc1C(=O)N(C(C)=O)[C@@H](Cc1ccc(F)cc1)C(=O)N[C@@H](Cc1ccc(NC(=N)N)cc1)C(=O)N[C@@H](CC(C)C)C(=O)N[C@@H](CCCN=C(N)N)C(N)=O | 0.023 µM
CC(=O)N(C(=O)/C=C/c1ccccc1)[C@@H](Cc1ccc(F)cc1)C(=O)NC(=O)NCCC[C@H](NC(=O)[C@H](CC(C)C)NC(=O)[C@@H](N)CCCN=C(N)N)C(=O)O | 1.04 µM
CC(=O)N(c1ccccc1F)[C@@H](Cc1ccc(F)cc1)C(=O)N[C@@H](Cc1ccc(NC(=N)N)cc1)C(=O)N[C@@H](CC(C)C)C(=O)N[C@@H](CCCN=C(N)N)C(N)=O | 0.56 µM
CC(=O)N(C(=O)/C=C/c1ccccc1)[C@@H](Cc1ccc(F)cc1)C(=O)N[C@@H](CCN=C(N(C)C)N(C)C)C(=O)N[C@@H](CC(C)C)C(=O)N[C@@H](CCCN=C(N)N)C(N)=O | 0.34 µM
CC(=O)N(C(=O)CSc1ccccc1)[C@@H](Cc1ccc(F)cc1)C(=O)N[C@@H](Cc1ccc(NC(=N)N)cc1)C(=O)N[C@@H](CC(C)C)C(=O)N[C@@H](CCCN=C(N)N)C(N)=O | 0.019 µM
CC(=O)N(C(=O)/C=C/c1ccccc1)[C@@H](Cc1ccc(F)cc1)C(=O)N[C@@H](Cc1ccc(NC(=N)N)cc1)C(=O)N[C@@H](CC(C)C)C(=O)N[C@@H](CCCN=C(N)N)C(=O)N[C@@H](CCCN)C(=O)CC(N)=O | 0.0166 µM
CC(=O)N(c1ccc(F)cc1)[C@@H](Cc1ccc(F)cc1)C(=O)N[C@@H](Cc1ccc(NC(=N)N)cc1)C(=O)N[C@@H](CC(C)C)C(=O)N[C@@H](CCCN=C(N)N)C(N)=O | 0.35 µM
CC(=O)N(C(=O)/C=C/c1ccccc1)[C@@H](Cc1ccc(F)cc1)C(=O)N[C@@H](Cc1c[nH]cn1)C(=O)N[C@@H](CC(C)C)C(=O)N[C@@H](CCCN=C(N)N)C(N)=O | 0.47 µM
C#CC(=O)c1cccc(N(C(C)=O)[C@@H](Cc2ccc(F)cc2)C(=O)N[C@@H](Cc2ccc(NC(=N)N)cc2)C(=O)N[C@@H](CC(C)C)C(=O)N[C@@H](CCCN=C(N)N)C(=O)N[C@@H](CCCN=C(N)N)C(N)=O)c1 (Ac-[X8][Phe(4-guanidino)]LRR-NH2) | 0.004 µM
CC(=O)N(C(=O)/C=C/c1ccccc1)[C@@H](Cc1ccccc1)C(=O)N[C@@H](Cc1ccc(NC(=N)N)cc1)C(=O)N[C@@H](CC(C)C)C(=O)N[C@@H](CCCN=C(N)N)C(N)=O | 0.024 µM
CC(C)C[C@H](NC(=O)[C@H](Cc1ccc(NC(=N)N)cc1)NC(=O)[C@H](Cc1ccc(F)cc1)NS(=O)(=O)c1cccs1)C(=O)N[C@@H](CCCN=C(N)N)C(N)=O (X2-[Phe(4-F)][Phe(4-guanidino)]LR-NH2) | 8.95 µM
CC(=O)N(C(=O)c1cccc(C2CCCCC2)c1)[C@@H](Cc1ccc(F)cc1)C(=O)N[C@@H](Cc1ccc(NC(=N)N)cc1)C(=O)N[C@@H](CC(C)C)C(=O)N[C@@H](CCCN=C(N)N)C(N)=O | 2.32 µM
CC(=O)N(C(=O)/C=C/c1ccccc1)[C@@H](Cc1ccc(F)cc1)C(=O)N[C@@H](Cc1ccc(NC(=N)N)cc1)C(=O)N[C@@H](CCCN)C(N)=O | 0.87 µM

SMILES | IC50
CCC(=O)c1cccc(N(C(C)=O)[C@@H](Cc2ccc(F)cc2)C(=O)N[C@@H](Cc2ccc(NC(=N)N)cc2)C(=O)N[C@@H](CC(C)C)C(=O)N[C@@H](CCCN=C(N)N)C(N)=O)c1 | 0.042 µM
CC(=O)N(c1cccc(F)c1)[C@@H](Cc1ccc(F)cc1)C(=O)N[C@@H](Cc1ccc(NC(=N)N)cc1)C(=O)N[C@@H](CC(C)C)C(=O)N[C@@H](CCCN=C(N)N)C(N)=O | 0.16 µM
CC(=O)N(C(=O)/C=C/c1ccc(Cl)cc1)[C@@H](Cc1ccc(F)cc1)C(=O)N[C@@H](Cc1ccc(NC(=N)N)cc1)C(=O)N[C@@H](CC(C)C)C(=O)N[C@@H](CCCN=C(N)N)C(N)=O | 0.099 µM
CC(=O)N(C(=O)/C=C/c1ccc(F)cc1)[C@@H](Cc1ccc(F)cc1)C(=O)N[C@@H](Cc1ccc(NC(=N)N)cc1)C(=O)N[C@@H](CC(C)C)C(=O)N[C@@H](CCCN=C(N)N)C(N)=O (stereo in doubt; 43) | 0.02 µM
CC(=O)N(CC(=O)N[C@@H](Cc1ccc(NC(=N)N)cc1)C(=O)N[C@@H](CC(C)C)C(=O)N[C@@H](CCCN=C(N)N)C(N)=O)C(=O)/C=C/c1ccccc1 | > 30 µM
CC(=O)N(C(=O)/C=C/c1ccccc1)[C@@H](Cc1ccc(F)cc1)C(=O)N[C@@H](Cc1ccc(NC(=N)N)cc1)C(=O)N[C@@H](CC(C)C)C(=O)N[C@@H](CCCN)C(N)=O | 0.017 µM
CC(=O)N(Oc1cccs1)[C@@H](Cc1ccc(F)cc1)C(=O)N[C@@H](Cc1ccc(NC(=N)N)cc1)C(=O)N[C@@H](CC(C)C)C(=O)N[C@@H](CCCN=C(N)N)C(N)=O | 0.22 µM
CC(=O)N(C(=O)/C=C/c1ccccc1)[C@@H](Cc1ccc(F)cc1)C(=O)N[C@@H](CCCN=C(N)N)C(=O)N[C@@H](CC(C)C)C(=O)N[C@@H](CCCN=C(N)N)C(N)=O | 0.028 µM
COc1ccc(C[C@H](NC(=O)[C@H](Cc2ccc(F)cc2)N(C(C)=O)C(=O)/C=C/c2ccccc2)C(=O)N[C@@H](CC(C)C)C(=O)N[C@@H](CCCN=C(N)N)C(N)=O)cc1 | 1.18 µM
CC(=O)N(C(=O)/C=C/c1ccc(-c2ccccc2)cc1)[C@@H](Cc1ccc(F)cc1)C(=O)N[C@@H](Cc1ccc(NC(=N)N)cc1)C(=O)N[C@@H](CC(C)C)C(=O)N[C@@H](CCCN=C(N)N)C(N)=O | 1.53 µM
CC(=O)N(c1c[nH]c2ccccc12)[C@@H](Cc1ccc(F)cc1)C(=O)N[C@@H](Cc1ccc(NC(=N)N)cc1)C(=O)N[C@@H](CC(C)C)C(=O)N[C@@H](CCCN=C(N)N)C(N)=O | 0.5 µM
CC(=O)N(C(=O)/C=C/c1ccc(F)cc1)[C@@H](Cc1ccc(F)cc1)C(=O)N[C@@H](Cc1ccc(NC(=N)N)cc1)C(=O)N[C@@H](CC(C)C)C(=O)N[C@@H](CCCN=C(N)N)C(=O)N[C@@H](CCCN)C(=O)CC(N)=O | 0.025 µM
CC(=O)N(C(=O)/C=C/c1ccccc1)[C@@H](Cc1ccc(F)cc1)C(=O)N[C@@H](Cc1ccc(NC(=N)N)cc1)C(=O)N[C@@H](CC(C)C)C(=O)N[C@@H](CCCN=C(N)N)C(=O)N[C@@H](CCCN=C(N)N)C(N)=O (X3-[Phe(4-guanidino)]LRR-NH2) | 0.0075 µM
CC(=O)N(C(=O)/C=C/c1ccccc1)[C@@H](Cc1ccc(F)cc1)C(=O)N[C@@H](CCCCN=C(N(C)C)N(C)C)C(=O)N[C@@H](CC(C)C)C(=O)N[C@@H](CCCN=C(N)N)C(N)=O | 0.13 µM
CC(=O)N(C(=O)/C=C/c1ccccc1)[C@@H](Cc1ccc(F)cc1)C(=O)N[C@@H](Cc1ccc(NC(=N)N)cc1)C(=O)N[C@@H](CC(C)C)C(N)=O | 0.11 µM
CC(=O)N(C1CCCC1)[C@@H](Cc1ccc(F)cc1)C(=O)N[C@@H](Cc1ccc(NC(=N)N)cc1)C(=O)N[C@@H](CC(C)C)C(=O)N[C@@H](CCCN=C(N)N)C(N)=O | 0.37 µM
CC(=O)N(C(=O)/C=C/c1ccc(O)cc1)[C@@H](Cc1ccc(F)cc1)C(=O)N[C@@H](Cc1ccc(NC(=N)N)cc1)C(=O)N[C@@H](CC(C)C)C(=O)N[C@@H](CCCN=C(N)N)C(N)=O | 0.062 µM
CC(=O)N(C(=O)/C=C/c1ccc(N)cc1)[C@@H](Cc1ccc(F)cc1)C(=O)N[C@@H](Cc1ccc(NC(=N)N)cc1)C(=O)N[C@@H](CC(C)C)C(=O)N[C@@H](CCCN=C(N)N)C(N)=O | 0.061 µM
CC(=O)N(C(=O)/C=C/c1ccc(F)cc1)[C@@H](Cc1ccc(F)cc1)C(=O)N[C@@H](Cc1ccc(NC(=N)N)cc1)C(=O)N[C@@H](CC(C)C)C(=O)N[C@@H](CCCN=C(N)N)C(N)=O (stereo in doubt; 62) | 0.023 µM
CCCCC/C=C/CC(=O)N(C(C)=O)[C@@H](Cc1ccc(F)cc1)C(=O)N[C@@H](Cc1ccc(NC(=N)N)cc1)C(=O)N[C@@H](CC(C)C)C(=O)N[C@@H](CCCN=C(N)N)C(N)=O | 0.035 µM
CC(=O)N(C(=O)/C=C/c1ccccc1)[C@@H](Cc1ccc(F)cc1)C(=O)N[C@@H](Cc1ccc([N+](=O)[O-])cc1)C(=O)N[C@@H](CC(C)C)C(=O)N[C@@H](CCCN=C(N)N)C(N)=O | 7.55 µM
CC(=O)N(C(=O)/C=C/c1ccccc1)[C@@H](Cc1ccc(F)cc1)C(=O)N[C@@H](Cc1cccnc1)C(=O)N[C@@H](CC(C)C)C(=O)N[C@@H](CCCN=C(N)N)C(N)=O | 0.34 µM
